Patent US11890350B2, “Steroid acid-peptide based cytotoxic compounds” (DEFENCE THERAPEUTICS INC., priority 2021, dated 2024)
Peptide text beside a SMILES is read from it. * marks the point of attachment. Cholyl = C[C@H](CCC(=O)*)[C@H]1CC[C@H]2[C@@H]3[C@H](O)C[C@@H]4C[C@H](O)CC[C@]4(C)[C@H]3C[C@H](O)[C@]12C

Experiments:
EL4 lymphoma [1] = experiment: EL4 tumor model in vivo; set-up: species or system C57BL/6 mice; details: for survival at day 40 / tumor growth: alone
Description: FIGS. 4A to 4F show the antitumoral effect of CA-SV40 on EL4 lymphoma in vivo. […] EL4 tumors without any treatment (i.e., PBS) are shown in black, whereas anti-PD-1 treatment alone is in orange and anti-CTLA-4 treatment alone is in purple. […]
Female C57BL/6 mice (n=10/group) received a SC injection of 5×10^5 EL4 cells at Day 0. Five days later (appearance of palpable tumors˜40-60 mm^3), mice were SC-injected with PBS, CA-SV40, anti-PD-1, or anti-CTLA4, alone or in combination.
The apoptosis observations obtained in vitro prompted us to explore whether CA-SV40 administration to mice with pre-established tumors can trigger a therapeutic effect. First, CA-SV40 was delivered alone using three different doses (47 μM, 95 μM, and 190 μM) every 48 h following the appearance of palpable tumors (EL4) (FIG. 4A) for a total of 5 injections. […] To further improve this response, we next combined the highest tested CA-SV40 dose (delivered daily instead of every 48 h) with the immune-checkpoint inhibitors (ICIs) anti-PD-1 or anti-CTLA4 (FIG. 4D). […]

mesenchymal stem cells = experiment: Annexin V apoptosis assessment on normal cells; type: cell-based; details: 190 μM
EL4 lymphoma cells [2] = experiment: MitoSOX staining for ROS production; type: cell-based; details: CA-SV40 at the IC50 dose, up to 8 h
Procedure: (§1) Percentages of double-positive stained cells is shown, which represents late apoptotic cells.
(§2) To further uncover the mechanism of cell death, we next investigated whether CA-SV40-triggered apoptosis is strictly occurring in the absence of necrosis. To do so, a co-staining experiment was conducted using propidium iodine (PI) and Annexin-V at different time points. […] Since a large number of anti-cancer molecules can trigger cell death via release or de novo production of reactive oxygen species (ROS), we next stained the EL4 lymphoma cells treated with CA-SV40 at the IC50 dose with MitoSOX™. […] This observation led us to test whether treatment with MitoTempo™ (blocking mitochondria-specific ROS) or N-acetylcysteine (NAC—building block for GSH) rescue from CA-SV40-triggered cell death.

[3] = system: bone marrow-derived dendritic cells; experiment: Annexin V apoptosis assessment on normal cells; type: cell-based, mouse; details: 190 μM
Procedure: Mouse bone marrow derived DCs (BMDCs) were generated by flushing the whole marrow from mouse femurs using RPMI™ 1640 supplemented with 10% fetal bovine serum (FBS), 50 U/mL Penicillin-Streptomycin, 2 mM L-glutamine, 10 mM HEPES, 1% MEM Non-essential Amino Acids, 1 mM Sodium Pyruvate, 0.5 mM β-mercaptoethanol. Following red blood cell lysis, cells were then cultured in media supplemented with 50 ng/mL murine recombinant GM-CSF. The media was changed on days 2, 4, 6 and 8. On day 9, the media was replaced to include recombinant murine GM-CSF and LPS from Escherichia coli O111 (1 ng/mL) to stimulate DC maturation. Mature DCs were assessed by flow cytometry for their surface expression of CD3, CD19, NK1.1, CD11c, CD80, CD86, and I-A^b.

EL4 lymphoma [4] = experiment: PI / Annexin-V co-staining time course; type: cell-based
Procedure: as §1, §2

EL4 lymphoma cells [5] = experiment: Annexin V apoptosis assessment by flow cytometry; type: cell-based; details: 190 μM
Procedure: Annexin-V staining percentage after treatment with different Cholic acid-NLS conjugates (190 μM) is shown relative to live EL4 lymphoma cells (i.e., PBS treated cancer cells) by flow cytometry.

EL4 cells = experiment: Cytochrome C cargo release cell death assay; type: cell-based
Procedure: FIGS. 3A and 3B show the ability of CA-SV40 to promote cargo release in the cytoplasm of target cells.
Cytochrome C is a protein that is normally entrapped in the mitochondria but can be released upon intrinsic signaling known to trigger apoptosis. An experiment was designed where recombinant cytochrome C was added to EL4 cells either alone or in combination with CA-SV40 (47 μM) (FIG. 3A). […] In addition, it may explain the increase in intracellular ROS levels as it can damage endosomes/vesicles responsible for intracellular ROS transport.

4T1 breast cancer cells = experiment: Annexin V apoptosis assessment by flow cytometry; type: cell-based; details: 4T-1; 190 μM
[6] = system: CT-26 colon carcinoma cells; experiment: Annexin V apoptosis assessment by flow cytometry; type: cell-based; details: 190 μM
macrophages = experiment: Annexin V apoptosis assessment on normal cells; type: cell-based; details: 190 μM
EL4 lymphoma cells [7] = experiment: Rescue from CA-SV40-triggered apoptosis by ROS blockers; type: cell-based
Procedure: as §1, §2

EL4 T-cell lymphoma = experiment: Cell death (kill) curve analysis by flow cytometry; details: alone, at any of the concentrations tested
[8] = highest tested dose (190 μM), every 48 h, 5 injections

Molecule: CSCC[C@H](NC(=O)[C@H](CS)NC(=O)CC[C@@H](C)[C@H]1CC[C@H]2[C@@H]3[C@H](O)C[C@@H]4C[C@H](O)CC[C@]4(C)[C@H]3C[C@H](O)[C@]12C)C(=O)NCC(=O)N[C@@H](CCCNC(=N)N)C(=O)N[C@H](C(=O)N[C@@H](CCCNC(=N)N)C(=O)N[C@H](C(=O)N[C@@H](CCCCN)C(=O)N[C@H](C(=O)N[C@H](C(=O)N[C@@H](CCCCN)C(=O)N[C@@H](CCCCN)C(=O)N[C@@H](C)C(=O)N[C@@H](C)C(=O)NCC(=O)NCC(=O)O)C(C)C)[C@@H](C)O)[C@@H](C)O)C(C)C [CA-NLS1 RPS17] (Cholyl-CMGRVRTKTVKKAAGG-OH; N-terminus and C-terminus assumed)
- survival at day 40 (EL4 lymphoma [1]; [8]): 20%
- tumor growth (EL4 lymphoma [1]; [8]): significantly delayed tumor growth

Molecule: CC[C@H](C)[C@H](NC(=O)[C@H](CCCNC(=N)N)NC(=O)[C@H](CCCCN)NC(=O)[C@H](CCSC)NC(=O)[C@H](CC(C)C)NC(=O)[C@H](Cc1c[nH]cn1)NC(=O)[C@@H](NC(=O)[C@@H](NC(=O)[C@H](Cc1ccc(O)cc1)NC(=O)CNC(=O)[C@H](C)NC(=O)[C@@H](NC(=O)[C@H](CCCCN)NC(=O)[C@H](CC(N)=O)NC(=O)[C@H](CCCNC(=N)N)NC(=O)[C@H](CC(C)C)NC(=O)[C@H](CCCCN)NC(=O)[C@H](CCCCN)NC(=O)[C@H](CO)NC(=O)[C@H](CS)NC(=O)CC[C@@H](C)[C@H]1CC[C@H]2[C@@H]3[C@H](O)C[C@@H]4C[C@H](O)CC[C@]4(C)[C@H]3C[C@H](O)[C@]12C)[C@@H](C)CC)C(C)C)[C@@H](C)O)C(=O)O [CA-NLS3 RPS17] (Cholyl-CSKKLRNKIAGYVTHLMKRI-OH; N-terminus and C-terminus assumed)
- survival at day 40 (EL4 lymphoma [1]; [8]): 20%
- tumor growth (EL4 lymphoma [1]; [8]): significantly delayed tumor growth

Molecule: CC(C)[C@H](NC(=O)[C@H](CCCCN)NC(=O)[C@H](CCCNC(=N)N)NC(=O)[C@H](CCCCN)NC(=O)[C@H](CCCCN)NC(=O)[C@H](CCCCN)NC(=O)[C@@H]1CCCN1C(=O)CNC(=O)[C@H](Cc1ccc(O)cc1)NC(=O)CNC(=O)[C@H](CS)NC(=O)CC[C@@H](C)[C@H]1CC[C@H]2[C@@H]3[C@H](O)C[C@@H]4C[C@H](O)CC[C@]4(C)[C@H]3C[C@H](O)[C@]12C)C(=O)NCC(=O)NCC(=O)O [CA-SV40] (Cholyl-CGYGPKKKRKVGG-OH; N-terminus and C-terminus assumed)
- apoptosis in normal cells (mesenchymal stem cells): induce apoptosis
- ROS production (MitoSOX signal) (EL4 lymphoma cells [2]): time-dependent ROS production
- apoptosis in normal cells [3]: induce apoptosis
- time at which apoptosis started occurring post-treatment (EL4 lymphoma [4]; PI/Annexin-V): 1 h
- time to complete death (EL4 lymphoma [4]; PI/Annexin-V): 8 h
- necrotic cells (PI+/Annexin V−) (EL4 lymphoma [4]; time course): no necrotic cells
- cell death through apoptosis (Annexin V staining) (EL4 lymphoma cells [5]): triggers cell death through apoptosis
- cytotoxicity compared with CA-GWG-SV40 (EL4 lymphoma cells [5]): notably higher
- increase in cell death (EL4 cells; CA-SV40 47 μM combined with cytochrome C): three-fold
- cell death (EL4 cells; CA-SV40 47 μM in combination with cytochrome C): 61%
- cell death (EL4 cells; before combination (weak CA-SV40 dose, 47 μM)): 19%
- cell death through apoptosis (Annexin V staining) (4T1 breast cancer cells): triggers cell death through apoptosis
- antitumoral response (EL4 lymphoma [1]; highest dose daily, combined with anti-PD-1 or anti-CTLA4, vs CA-SV40 alone): significantly enhanced the antitumoral response
- tumor growth (EL4 lymphoma [1]; highest dose delivered daily): significant delays in tumor growth
- tumor growth (EL4 lymphoma [1]; [8]): significantly delayed tumor growth
- cell death through apoptosis (Annexin V staining) [6]: triggers cell death through apoptosis
- apoptosis in normal cells (macrophages): induce apoptosis

Molecule: CC(=O)N[C@@H](CS)C(=O)O [NAC, N-acetylcysteine]
- rescue from CA-SV40-triggered apoptosis (EL4 lymphoma cells [7]; CA-SV40 at IC50 dose): completely blocked apoptosis
- rescue from CA-SV40-triggered apoptosis (EL4 lymphoma cells [7]; CA-SV40 at higher doses (IC100)): incomplete but significant blockade

Molecule: SV40 NLS: NLS from SV-40 large T-antigen (e.g., PKKKRKV), unconjugated negative control
- cytotoxic activity (EL4 T-cell lymphoma): did not exhibit any cytotoxic activity

Molecule: cytochrome C: recombinant cytochrome C protein, cargo added to EL4 cells [reference compound]
- cell death (EL4 cells; recombinant cytochrome C alone): did not trigger cell death
